Tests used:
RIPK1 kinase = RIPK1 kinase (Homo sapiens (Human), UniProt Q13546); assay: RIPK1 kinase inhibitory assay (ADP-Glo); type: biochemical; settings: for inhibition at 10 µM: 10 μM compound, read-out: Inhibition rate of RIPK1 at 10 μM (%)
Protocol: Materials and Instruments: ADP-Glo kinase kit (purchased from Promega), RIPK1 GST-Th-Tag (purchased from Bps Bioscience), MBP substrate (purchased from Millipore), nunc 384-well plate, ATP fluorescence analyzer Paradigm detection platform (purchased from Beckman coulter)
The compounds were diluted in DMSO and configured into a solution with a final concentration of 10 mM; Dilute RIP1 kinase from 140 ng/μL to 20 ng/μL for use. Dilute 10 mM of ATP to 100 μM for later use; Dilute 5 mg/mL of MBP to 1 mg/mL for later use. Appropriate embodiments were added into the well of the 384-well plate, 10 μl […] ATP was evenly mixed with 1 μl 1 mg/mL MB P, the mixed solution was added to the well, and 2 μL […] RIP1 kinase was added to the hole, and then incubated at room temperature for 1 h. Subsequently, 5 μL ADP-Glo reagent was added to each well and incubated at room temperature for 40 min. Then, 10 μL ADP-Glo detection reagent was added to each well and incubated at room temperature for 30 min. Finally, the RLU value (relative light unit) of each well was measured by ATP fluorometer, and each sample was repeated twice. Inhibition rate=(RLU value of blank group−RLU value of drug administration group)/RLU value of blank group×100%.

U937 cells = assay: Cell anti-necroptosis activity assay (LPS + Z-VAD-FMK, CCK8); type: cell-based; settings: Homo sapiens, U-937; PMA-differentiated U937, LPS 100 ng/ml + Z-VAD-FMK 20 μM, 24 h; read-out: EC50 of inhibition of necroptosis
Protocol: Materials: U937 cell line (human myeloid leukemia cells), RPMI 1640 medium (purchased from Gibco, USA), penicillin-streptomycin double antibody (purchased from Gibco, USA), fetal bovine serum (purchased from genetic, USA), tetradecanoylphorbol acetate (purchased from biyuntian Biotechnology Co., Ltd.), CCK8 cell proliferation detection kit (purchased from biyuntian Biotechnology Co., Ltd), Z-VAD-FMK (from APExBIO, USA) and LPS (from Sigma, USA).
U937 cells were cultured in RPMI 1640 containing 10% heat inactivated fetal bovine serum and 1% penicillin-streptomycin in a constant temperature cell incubator at 37° C. and 5% CO2, and subcultured every 1-2 days. Human monocytic cell line U937 cells could be induced to differentiate into mature monocytes/macrophages after stimulation with tetradecanoylphorbol acetate (PMA). The cells in the logarithmic growth phase were seeded in 96 well plates at a density of 4×10^4 cells/well and cultured. PMA 100 ng/ml was added for 24 h, and then the fresh medium was changed. The necroptosis model was constructed by stimulation of LPS and caspase inhibitor Z-VAD-FMK. In the experimental groups, LPS (100 ng/ml) was added for 1 hour, and then the solvent control (DMSO) or different concentrations of compounds to be tested (30 μM, 10 μM, 3 μM, 1 μM, 300 nM, 100 nM, 30 nM 7 concentrations in total) for 1 h, and then the experimental groups were treated with caspase inhibitor Z-VAD-FMK (20 μM). The cell viability was detected after 24 h of culture. The control groups were not treated with LPS, drugs and Z-VAD-FMK. No cells were added to the blank hole, only the culture medium. Each group is set with 4 parallel. CCK8 cell proliferation assay kit was used to detect the cell viability and survival rate, and the operation was carried out according to the kit instructions. The cell supernatant was added with 10 μL CCK8 detection reagent, and the cell absorbance (450 nm) was detected by a microplate reader after 0.5 h. Calculate the cell death rate (%)=(average absorbance of control well−average absorbance of experimental group)/(average absorbance of control well−average absorbance of the blank well)×100. Finally, the half effective concentration (EC50) of the drug was calculated by GraphPad Prism 7.0® software.

[1] = test system: rat model of ischemic stroke (MCAO); assay: Rat MCAO cerebral ischemia/reperfusion model of ischemic stroke; type: in vivo; settings: tMCAO rats
Protocol: Animals: SPF-grade male Sprague Dawley (SD) rats (purchased from Beijing Weitonglihua Experimental Animal Technology Co., Ltd.). Rats were fed with a free diet, 12 h: 12 h circadian rhythm.
Material: 2,3,5-Triphenyltetrazolium chloride (purchased from Beijing Solebo Technology Co., Ltd.), N,N-Dimethylacetamide (purchased from Shanghai Aladdin Biochemical Technology Co., Ltd.), castor oil polyoxyethylene ether (purchased from Shanghai McLean Biochemical Technology Co., Ltd.), sodium chloride (purchased from Bioengineering (Shanghai) Co., Ltd.), isoflurane (purchased from Shenzhen ruiwode Life Technology Co., Ltd.), and Sodium dihydrogen phosphate (purchased from Sinopharm group), disodium hydrogen phosphate (purchased from Sinopharm group), paraformaldehyde (purchased from biotechnology (Shanghai) Co., Ltd.) and thread bolt (purchased from Beijing Xinong Technology Co., Ltd.).
Methods: A rat model of ischemic stroke was established by middle cerebral artery occlusion (MCAO) of cerebral ischemia/reperfusion: Healthy male SD rats (weighing 260±40 g) were anesthetized with 5% isoflurane and maintained with 1.5%-2% isoflurane. The rats were fixed in the supine position, and the right common carotid artery, internal carotid artery and external carotid artery were separated through the median neck incision and threaded for standby. The proximal end of the common carotid artery and the external carotid artery were ligated, and the internal carotid artery was clamped with an artery clamp. The suture plug was cut and inserted at about 0.5 cm from the bifurcation of the common carotid artery. The artery clamp was released, and the suture plug was delivered until the blood flow of the middle cerebral artery was blocked. After 60 minutes of ischemia, the suture plug was removed to restore blood flow. The rectal temperature was maintained at 37±0.5° C. during the operation. After 48 hours of ischemia/reperfusion, the neurological function was evaluated by modified neurological severity score (MNSs). The cerebral infarction volume was detected by TTC staining, and the brain water content was detected to evaluate the cerebral edema.

[2] = 2.5 mg/kg and 5 mg/kg bid, 48 h after ischemia/reperfusion

RIPK1 kinase, sequence (Q13546 whole entry): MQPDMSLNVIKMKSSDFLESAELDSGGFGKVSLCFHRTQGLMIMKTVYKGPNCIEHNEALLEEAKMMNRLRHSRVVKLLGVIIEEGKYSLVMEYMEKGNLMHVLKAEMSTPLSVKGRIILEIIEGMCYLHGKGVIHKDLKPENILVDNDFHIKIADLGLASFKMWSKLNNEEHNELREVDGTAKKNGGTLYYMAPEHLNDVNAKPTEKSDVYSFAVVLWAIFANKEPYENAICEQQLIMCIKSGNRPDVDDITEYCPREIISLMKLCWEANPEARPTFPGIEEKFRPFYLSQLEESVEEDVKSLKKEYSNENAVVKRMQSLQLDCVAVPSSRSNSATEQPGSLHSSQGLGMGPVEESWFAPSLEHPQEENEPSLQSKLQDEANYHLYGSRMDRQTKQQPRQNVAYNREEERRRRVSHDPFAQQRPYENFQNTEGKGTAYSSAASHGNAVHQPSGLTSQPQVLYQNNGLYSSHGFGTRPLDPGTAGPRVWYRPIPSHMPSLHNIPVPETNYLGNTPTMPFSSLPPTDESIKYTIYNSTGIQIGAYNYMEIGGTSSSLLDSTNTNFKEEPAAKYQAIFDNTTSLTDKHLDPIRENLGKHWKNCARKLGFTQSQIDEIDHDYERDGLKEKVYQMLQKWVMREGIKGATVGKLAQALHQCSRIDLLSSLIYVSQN

Row | SMILES | IC50 (RIPK1 kinase) [nM] | inhibition at 10 µM (RIPK1 kinase) [%] | EC50 (U937 cells) [nM] | nerve injury score [1, 2] | water content in the ischemic side [1, 2] | infarct volume ([1]; 2.5 mg/kg and 5 mg/kg bid, 48 h after ischemia/reperfusion, TTC staining) | protective effect on cerebral ischemia injury compared with edaravone ([1]; 5 mg/kg bid vs positive control edaravone 5 mg/kg QD)
1 | O=C(c1ccccc1)N1CCC2(CC1)CCN(Cc1ccccc1F)C2=O [Compound 31, 8-benzoyl-2-(2-fluorobenzyl)-2,8-diazaspiro[4.5]decan-1-one] | 186 | > 50 | 1050 | significantly reduce | significantly reduce | significantly reduce | stronger protective effect
2 | O=C(c1ccccc1)N1CCC2(CC1)CCN(Cc1cc(F)ccc1F)C2=O [Compound 34, 8-benzoyl-2-(2,5-difluorobenzyl)-2,8-diazaspiro[4.5]decan-1-one] | 693 | > 50 | 1340 |  |  |  | 
3 | O=C(c1cnco1)N1CCC2(CC1)CCN(Cc1cc(F)ccc1F)C2=O [Compound 42, 2-(2,5-difluorobenzyl)-8-(oxazole-5-carbonyl)-2,8-diazaspiro[4.5]decan-1-one] | 1040 | > 50 | 1650 |  |  |  | 
4 | O=C(c1ccc2cc[nH]c2c1)N1CCC2(CC1)CCN(Cc1ccccc1F)C2=O [Compound 44, 2-(2-fluorobenzyl)-8-(1H-indole-6-carbonyl)-2,8-diazaspiro[4.5]decan-1-one] | 186 | > 50 | 161 |  |  |  | 
5 | O=C(c1ccc2cc[nH]c2c1)N1CCC2(CC1)CCN(Cc1cc(F)ccc1F)C2=O [Compound 46, 2-(2,5-difluorobenzyl)-8-(1H-indole-6-carbonyl)-2,8-diazaspiro[4.5]decan-1-one] | 624 | > 50 | 1200 |  |  |  | 
6 | Cn1ccc2ccc(C(=O)N3CCC4(CC3)CCN(Cc3cc(F)ccc3F)C4=O)cc21 [Compound 49, 2-(2,5-difluorobenzyl)-8-(1-methyl-1H-indole-6-carbonyl)-2,8-diazaspiro[4.5]decan-1-one] | 92 | > 50 | 1110 |  |  |  | 
7 | Cn1ccc2ccc(C(=O)N3CCC4(CC3)CCN(Cc3ccccc3F)C4=O)cc21 [Compound 50, 2-(2-fluorobenzyl)-8-(1-methyl-1H-indole-6-carbonyl)-2,8-diazaspiro decan-1-one] | 102 | > 50 | 1560 |  |  |  | 

Reference: patent US20250129073A1, “INHIBITOR OF RECEPTOR-INTERACTING PROTEIN KINASE 1, AND PREPARATION METHOD AND USE THEREFOR” (CHINA PHARMACEUTICAL UNIVERSITY, priority 2021, published 2025)
